Reference: patent US12435031B2, “Compound with broad-spectrum antibacterial activity and its antibacterial composition” (CHINA AGRICULTURAL UNIVERSITY, priority 2023, dated 2025)
In brackets after ≈: the same amount, converted by molar mass. Where two headings read alike, the source gives them in different places.

System: Clostridium perfringens
Test: microbe, parasite or virus in culture
Type: cell-based
Details: Clostridium perfringens
[1] = read-out: MIC value against Clostridium perfringens, strain A3-1 (A-type)
[2] = read-out: MIC value against Clostridium perfringens, strain A3-2 (A-type)
[3] = read-out: MIC value against Clostridium perfringens, strain A57-1 (A-type)
[4] = read-out: MIC value against Clostridium perfringens, strain B4 (B-type)
[5] = read-out: MIC value against Clostridium perfringens, strain B5 (B-type)
[6] = read-out: MIC value against Clostridium perfringens, strain C3 (C-type)
[7] = read-out: MIC value against Clostridium perfringens, strain C8 (C-type)
[8] = read-out: MIC value against Clostridium perfringens, strain C59-1 (C-type)
[9] = read-out: MIC value against Clostridium perfringens, strain D14B (D-type)
[10] = read-out: MIC value against Clostridium perfringens, strain F5-2 (F-type)
[11] = read-out: MIC value against Clostridium perfringens, strain F6-1 (F-type)
[12] = read-out: MIC value against Clostridium perfringens, strain F6-2 (F-type)
[13] = read-out: MIC value against Clostridium perfringens, strain F6-2-1 (F-type)
[14] = read-out: MIC value against Clostridium perfringens, strain F6-2-2 (F-type)
[15] = read-out: MIC value against Clostridium perfringens, strain F7-1 (F-type)
[16] = read-out: MIC value against Clostridium perfringens, strain F8-1 (F-type)
[17] = read-out: MIC value against Clostridium perfringens, strain H12-1 (H-type)
[18] = read-out: MIC value against Clostridium perfringens, strain H12-2 (H-type)
[19] = read-out: MIC value against Clostridium perfringens, strain H13-1 (H-type)
[20] = read-out: MIC value against Clostridium perfringens, strain H14-1 (H-type)
[21] = read-out: MIC value against Clostridium perfringens, strain H14-2 (H-type)
[22] = read-out: MIC value against Clostridium perfringens, strain H14-4 (H-type)
[23] = read-out: MIC value against Clostridium perfringens, strain H15-1 (H-type)
[24] = read-out: MIC value against Clostridium perfringens, strain H15-2 (H-type)
[25] = read-out: MIC value against Clostridium perfringens, strain H15-3 (H-type)
[26] = read-out: MIC value against Clostridium perfringens, strain H16 (H-type)

| SMILES | MIC50 | MIC [1] | MIC [2] | MIC [3] | MIC [4] | MIC [5] | MIC [6] | MIC [7] | MIC [8] | MIC [9] | MIC [10] | MIC [11] | MIC [12] | MIC [13] | MIC [14] | MIC [15] | MIC [16] | MIC [17] | MIC [18] | MIC [19] | other results |
| --- | --- | --- | --- | --- | --- | --- | --- | --- | --- | --- | --- | --- | --- | --- | --- | --- | --- | --- | --- | --- | --- |
| O=C(Nc1cc(Cl)cc(Br)c1)c1cc(Cl)ccc1O [BAB142] | 16 µg/mL (≈ 44.3 µM) | – | – | – | – | – | – | – | – | – | – | – | – | – | – | – | – | – | – | – | – |
| Cc1cc(C(F)(F)F)ccc1NC(=O)c1cc(Cl)ccc1O [BAB151] | 8 µg/mL (≈ 24.3 µM) | – | – | – | – | – | – | – | – | – | – | – | – | – | – | – | – | – | – | – | – |
| O=C(Nc1ccc(Cl)c(C(F)(F)F)c1Cl)c1cc(Cl)ccc1O [BAB160] | 8 µg/mL (≈ 20.8 µM) | – | – | – | – | – | – | – | – | – | – | – | – | – | – | – | – | – | – | – | – |
| O=C(Nc1cc(F)c(Cl)c(Cl)c1)c1cc(Cl)ccc1O [BAB166] | 32 µg/mL (≈ 95.6 µM) | – | – | – | – | – | – | – | – | – | – | – | – | – | – | – | – | – | – | – | – |
| CO/N=C(\C(=O)N[C@@H]1C(=O)N2C(C(=O)O)=C(CSC(=O)c3ccco3)CS[C@H]12)c1csc(N)n1 [CEF, Ceftiofur] | – | ≤ 0.25 µg/mL | ≤ 0.25 µg/mL | ≤ 0.25 µg/mL | ≤ 0.25 µg/mL | ≤ 0.25 µg/mL | 1 µg/mL (≈ 1.91 µM) | ≤ 0.25 µg/mL | ≤ 0.25 µg/mL | ≤ 0.25 µg/mL | ≤ 0.25 µg/mL | ≤ 0.25 µg/mL | ≤ 0.25 µg/mL | ≤ 0.25 µg/mL | ≤ 0.25 µg/mL | ≤ 0.25 µg/mL | ≤ 0.25 µg/mL | ≤ 0.25 µg/mL | ≤ 0.25 µg/mL | ≤ 0.25 µg/mL | MIC [20]: ≤ 0.25 µg/mL; MIC [21]: ≤ 0.25 µg/mL; MIC [22]: ≤ 0.25 µg/mL; MIC [23]: ≤ 0.25 µg/mL; MIC [24]: ≤ 0.25 µg/mL; MIC [25]: ≤ 0.25 µg/mL; MIC [26]: ≤ 0.25 µg/mL |
| C[C@H]1c2cccc(O)c2C(=O)C2=C(O)[C@]3(O)C(=O)C(C(N)=O)=C(O)[C@@H](N(C)C)[C@@H]3[C@@H](O)[C@@H]21 [DOX, Doxycycline] | 8 µg/mL (≈ 18 µM) | 8 µg/mL (≈ 18 µM) | 8 µg/mL (≈ 18 µM) | ≤ 0.25 µg/mL | 2 µg/mL (≈ 4.5 µM) | 8 µg/mL (≈ 18 µM) | 16 µg/mL (≈ 36 µM) | ≤ 0.25 µg/mL | ≤ 0.25 µg/mL | 1 µg/mL (≈ 2.25 µM) | 4 µg/mL (≈ 9 µM) | 32 µg/mL (≈ 72 µM) | 16 µg/mL (≈ 36 µM) | 16 µg/mL (≈ 36 µM) | 16 µg/mL (≈ 36 µM) | 8 µg/mL (≈ 18 µM) | 16 µg/mL (≈ 36 µM) | 4 µg/mL (≈ 9 µM) | 4 µg/mL (≈ 9 µM) | 8 µg/mL (≈ 18 µM) | MIC90: 16 µg/mL (≈ 36 µM); MIC [20]: 8 µg/mL (≈ 18 µM); MIC [21]: 8 µg/mL (≈ 18 µM); MIC [22]: 4 µg/mL (≈ 9 µM); MIC [23]: 16 µg/mL (≈ 36 µM); MIC [24]: 16 µg/mL (≈ 36 µM); MIC [25]: 8 µg/mL (≈ 18 µM); MIC [26]: 8 µg/mL (≈ 18 µM) |
